pIC50: −log10 of the molar value. Bounds are passed on as bounds.

The values below come from patent US20250163054A1, “SUBSTITUTED BICYCLIC HETEROARYL COMPOUNDS USEFUL AS INHIBITORS OF TLR9” (Bristol-Myers Squibb Company, priority 2022, published 2025).

What all share (assay type): cell-based
Assay [1] addresses T1, human TLR9 (Homo sapiens, UniProt Q9NR96).
T1 construct: host or cells: HEK-Blue cells (HEK293-derived reporter line)
T1 sequence (Q9NR96 26-1032): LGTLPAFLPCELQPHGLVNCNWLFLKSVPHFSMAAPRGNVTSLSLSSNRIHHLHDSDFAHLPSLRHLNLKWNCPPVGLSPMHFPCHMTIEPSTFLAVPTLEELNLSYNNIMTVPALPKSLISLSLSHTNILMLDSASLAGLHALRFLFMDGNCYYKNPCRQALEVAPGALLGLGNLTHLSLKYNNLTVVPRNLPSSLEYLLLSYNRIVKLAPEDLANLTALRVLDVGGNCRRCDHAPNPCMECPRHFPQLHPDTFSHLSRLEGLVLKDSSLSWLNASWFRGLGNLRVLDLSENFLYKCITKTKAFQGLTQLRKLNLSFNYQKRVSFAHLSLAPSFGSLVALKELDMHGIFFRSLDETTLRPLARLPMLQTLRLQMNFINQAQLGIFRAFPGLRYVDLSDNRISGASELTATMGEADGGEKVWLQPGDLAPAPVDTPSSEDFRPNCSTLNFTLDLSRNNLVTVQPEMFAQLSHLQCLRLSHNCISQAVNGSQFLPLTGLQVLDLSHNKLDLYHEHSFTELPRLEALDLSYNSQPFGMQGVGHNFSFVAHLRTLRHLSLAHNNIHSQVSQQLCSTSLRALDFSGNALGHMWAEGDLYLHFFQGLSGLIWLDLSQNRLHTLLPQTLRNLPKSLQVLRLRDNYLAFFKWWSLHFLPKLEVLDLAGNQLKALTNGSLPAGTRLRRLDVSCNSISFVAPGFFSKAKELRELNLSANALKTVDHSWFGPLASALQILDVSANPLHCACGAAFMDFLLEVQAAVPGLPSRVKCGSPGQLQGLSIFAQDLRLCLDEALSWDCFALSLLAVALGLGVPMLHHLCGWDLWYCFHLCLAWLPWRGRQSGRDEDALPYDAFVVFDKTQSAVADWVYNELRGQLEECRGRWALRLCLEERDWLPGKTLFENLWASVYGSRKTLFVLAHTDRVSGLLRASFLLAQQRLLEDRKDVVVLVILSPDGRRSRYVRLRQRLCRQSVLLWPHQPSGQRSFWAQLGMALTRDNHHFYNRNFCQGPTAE
The assay can be described thus: TLR7/8/9 Inhibition Reporter Assays (TLR9). The conditions noted are these: HEK-Blue cells overexpressing human TLR9, SEAP reporter, stimulated with TLR9 ligand ODN2006. The procedure: (§1) HEK-Blue™-cells (Invivogen) overexpressing human TLR7, TLR8 or TLR9 receptors were used for screening inhibitors of these receptors using an inducible SEAP (secreted embryonic alkaline phosphatase) reporter gene under the control of the IFN-β minimal promoter fused to five NF-κB and AP-1-binding sites. Cells are seeded into Greiner 384 well plates (15000 cells per well) that are predispensed (by ECHO) with testing compounds in DMSO to yield a final dose response concentration range of 0.85 nM-[…]. After a 60 minute compound pre-treatment in 37° C. incubator, the cells are then stimulated with a TLR7 ligand (gardiquimod at a final concentration of […]), TLR8 ligand (R848 at a final concentration of […]) or TLR9 ligand (ODN2006 at a final concentration of 200 nM) to activate NF-κB and AP-1 which induce the production of SEAP. After a 22 hour incubation at 37° C., 5% CO2, SEAP levels are determined with the addition of HEK-Blue™ Detection reagent (Invivogen), a cell culture medium that allows for detection of SEAP, according to manufacturer's specifications. The percent inhibition is determined as the % reduction in the HEK-Blue signal present in wells treated with agonist plus DMSO alone compared to wells treated with a known inhibitor.

In assay [2] the target is T2, human TLR8 (Homo sapiens, UniProt Q9NR97).
T2 construct: host or cells: HEK-Blue cells (HEK293-derived reporter line)
T2 sequence (Q9NR97 27-1041): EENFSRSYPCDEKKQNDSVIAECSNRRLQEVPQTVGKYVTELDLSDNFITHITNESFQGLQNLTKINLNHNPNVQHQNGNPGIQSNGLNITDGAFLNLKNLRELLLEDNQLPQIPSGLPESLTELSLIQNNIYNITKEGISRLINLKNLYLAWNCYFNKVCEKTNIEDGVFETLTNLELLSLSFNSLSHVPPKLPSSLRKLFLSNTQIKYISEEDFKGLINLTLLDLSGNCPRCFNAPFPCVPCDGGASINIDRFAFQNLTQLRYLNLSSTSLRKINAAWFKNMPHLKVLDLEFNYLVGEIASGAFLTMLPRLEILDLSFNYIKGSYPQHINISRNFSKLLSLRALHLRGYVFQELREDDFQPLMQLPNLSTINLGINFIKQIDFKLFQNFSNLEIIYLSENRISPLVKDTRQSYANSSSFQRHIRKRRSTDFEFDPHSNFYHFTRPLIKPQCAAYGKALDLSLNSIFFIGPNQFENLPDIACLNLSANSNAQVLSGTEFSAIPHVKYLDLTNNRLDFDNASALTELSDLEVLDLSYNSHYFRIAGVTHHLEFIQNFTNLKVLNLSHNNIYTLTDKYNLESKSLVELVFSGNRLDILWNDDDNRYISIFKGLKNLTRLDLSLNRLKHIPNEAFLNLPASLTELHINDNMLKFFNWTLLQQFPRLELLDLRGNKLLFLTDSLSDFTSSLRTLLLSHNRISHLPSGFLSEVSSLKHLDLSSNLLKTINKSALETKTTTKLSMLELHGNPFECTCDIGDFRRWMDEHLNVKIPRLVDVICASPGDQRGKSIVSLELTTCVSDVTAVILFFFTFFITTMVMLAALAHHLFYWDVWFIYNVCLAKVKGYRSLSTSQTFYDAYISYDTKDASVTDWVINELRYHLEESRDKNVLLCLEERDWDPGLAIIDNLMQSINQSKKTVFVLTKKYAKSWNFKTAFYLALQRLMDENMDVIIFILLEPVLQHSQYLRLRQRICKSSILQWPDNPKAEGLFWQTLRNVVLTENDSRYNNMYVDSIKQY
The assay is described as follows: TLR7/8/9 Inhibition Reporter Assays (TLR8). Conditions: HEK-Blue cells overexpressing human TLR8, SEAP reporter, stimulated with TLR8 ligand R848. As to the method:
as §1
A general note: In a reporter assay the amount or activity of a reporter protein is the signal.

Assay [3] addresses T3, human TLR7 (Homo sapiens, UniProt Q9NYK1).
T3 construct: host or cells: HEK-Blue cells (HEK293-derived reporter line)
T3 sequence (Q9NYK1 27-1049): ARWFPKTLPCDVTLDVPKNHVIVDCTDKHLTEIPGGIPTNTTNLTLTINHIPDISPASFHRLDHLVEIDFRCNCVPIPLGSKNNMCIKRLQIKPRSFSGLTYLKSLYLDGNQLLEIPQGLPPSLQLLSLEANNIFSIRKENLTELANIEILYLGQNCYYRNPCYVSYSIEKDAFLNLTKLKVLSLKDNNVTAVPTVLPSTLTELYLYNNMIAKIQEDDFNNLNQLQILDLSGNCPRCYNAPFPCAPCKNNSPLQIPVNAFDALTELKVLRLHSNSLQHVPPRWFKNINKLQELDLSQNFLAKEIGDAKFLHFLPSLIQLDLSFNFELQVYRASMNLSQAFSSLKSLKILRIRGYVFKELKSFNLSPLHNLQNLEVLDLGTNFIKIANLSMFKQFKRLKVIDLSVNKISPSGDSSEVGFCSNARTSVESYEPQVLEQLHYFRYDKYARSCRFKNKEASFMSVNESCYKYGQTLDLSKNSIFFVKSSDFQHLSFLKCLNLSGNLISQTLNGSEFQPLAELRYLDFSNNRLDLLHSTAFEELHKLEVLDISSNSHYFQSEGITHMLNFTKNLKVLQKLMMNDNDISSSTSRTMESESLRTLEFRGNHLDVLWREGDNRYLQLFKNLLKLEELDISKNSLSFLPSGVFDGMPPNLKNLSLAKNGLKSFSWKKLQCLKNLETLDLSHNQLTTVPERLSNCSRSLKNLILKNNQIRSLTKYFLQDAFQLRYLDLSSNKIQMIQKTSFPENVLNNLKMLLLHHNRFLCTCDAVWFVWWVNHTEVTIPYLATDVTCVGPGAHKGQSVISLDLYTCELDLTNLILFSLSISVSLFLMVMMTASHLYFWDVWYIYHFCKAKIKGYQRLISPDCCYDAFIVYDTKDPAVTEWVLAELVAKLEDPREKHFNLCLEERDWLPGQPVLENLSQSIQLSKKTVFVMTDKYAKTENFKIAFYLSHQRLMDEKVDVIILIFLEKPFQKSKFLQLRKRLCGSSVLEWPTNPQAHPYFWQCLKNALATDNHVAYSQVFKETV
The assay can be described thus: TLR7/8/9 Inhibition Reporter Assays (TLR7). Conditions: HEK-Blue cells overexpressing human TLR7, SEAP reporter, stimulated with TLR7 ligand gardiquimod. As to the method: as §1

As usually defined, the pIC50 is −log10 of the IC50, conventionally taken in molar units. Low values mean a large IC50, high ones a small IC50. Take `Cc1nc(C2CCN(C3CCN(CC(C)(C)O)CC3)CC2)cc2c1nc(-c1ccc(S(C)(=O)=O)cc1)n2C` [Example 40, 1-(4-(1,4-dimethyl-2-(4-(methylsulfonyl)phenyl)-1H-imidazo[4,5-c]pyridin-6-yl)-[1,4′-bipiperidin]-1′-yl)-2-methylpropan-2-ol]: the pIC50 in assay [1] is 6.92; in assay [2], under 4.30; in assay [3], 5.04.

`CC(C)N1CC2(CCN(c3ccc(-c4cc5c(cn4)nc(-c4ccc(S(C)(=O)=O)cc4)n5C)cc3)C2)C1` [Example 64, 6-(4-(2-isopropyl-2,6-diazaspiro[3.4]octan-6-yl)phenyl)-1-methyl-2-(4-(methylsulfonyl)phenyl)-1H-imidazo[4,5-c]pyridine]: the pIC50 in assay [1] is 6.66; in assay [2] it was 6.10; in assay [3], 5.55.

On to `COc1ccc(-c2nc3c(C)nc(-c4ccc(N5C[C@@H]6CN(C7CCC7)C[C@@H]6C5)cc4)cc3n2C)cc1OC` [Example 66, 6-(4-((3aR,6aS)-5-cyclobutylhexahydropyrrolo[3,4-c]pyrrol-2(1H)-yl)phenyl)-2-(3,4-dimethoxyphenyl)-1,4-dimethyl-1H-imidazo[4,5-c]pyridine], for which the pIC50 is 7.54 in assay [1], 4.70 in assay [2] and 5.64 in assay [3].

As for `Cc1nc(-c2ccc(N3CCC4(CC3)CN(C3CCC3)C4)cc2)cc2c1nc(-c1ccc(S(C)(=O)=O)cc1)n2C` [Example 74, 6-(4-(2-cyclobutyl-2,7-diazaspiro[3.5]nonan-7-yl)phenyl)-1,4-dimethyl-2-(4-(methylsulfonyl)phenyl)-1H-imidazo[4,5-c]pyridine], the pIC50 in assay [1] is 7.42; in assay [2] it was 5.43; in assay [3] it was 5.96.

Turning to `Cc1nc(-c2ccc(N3C[C@@H]4CN(C(C)C)C[C@@H]4C3)cc2)cc2c1nc(-c1ccc(S(C)(=O)=O)cc1)n2C` [Example 67, 6-(4-((3aR,6aS)-5-isopropylhexahydropyrrolo[3,4-c]pyrrol-2(1H)-yl)phenyl)-1,4-dimethyl-2-(4-(methylsulfonyl)phenyl)-1H-imidazo[4,5-c]pyridine], the pIC50 was 7.39 in assay [1], 5.74 in assay [2] and 5.72 in assay [3].

In the case of `CC(C)N1CCN(c2ccc(-c3cc4c(cn3)nc(-c3ccc(S(C)(=O)=O)cc3)n4C)cc2)CC1` [Example 70, 6-(4-(4-isopropylpiperazin-1-yl)phenyl)-1-methyl-2-(4-(methylsulfonyl)phenyl)-1H-imidazo[4,5-c]pyridine], the results for the pIC50 in assay [1], in assay [2] and in assay [3] were 6.64, 6.36 and 5.28, respectively.

Consider `Cc1nc(-c2ccc(CN3CCC(N(C)C)CC3)cc2)cc2c1nc(-c1ccc(S(C)(=O)=O)cc1)n2C` [Example 45, 1-(4-(1,4-dimethyl-2-(4-(methylsulfonyl)phenyl)-1H-imidazo[4,5-c]pyridin-6-yl)benzyl)-N,N-dimethylpiperidin-4-amine], for which the negative-log IC50 (pIC50) in assay [1] is 7.14; in assay [2], 5.31; in assay [3] it was 6.00.

For `Cc1nc(-c2ccc(C3CCN(C4CCOCC4)CC3)cc2)cc2c1nc(-c1ccc(S(C)(=O)=O)cc1)n2C` [Example 28, 1,4-dimethyl-2-(4-(methylsulfonyl)phenyl)-6-(4-(1-(tetrahydro-2H-pyran-4-yl)piperidin-4-yl)phenyl)-1H-imidazo[4,5-c]pyridine], the negative-log IC50 (pIC50) in assay [1] is 6.51; in assay [2], under 4.60; in assay [3], 4.96.

Take `Cn1c(-c2ccc(S(C)(=O)=O)cc2)nc2c(C(F)(F)F)nc(C3CCN(C4CCN(CC(C)(C)O)CC4)CC3)cc21` [Example 34, 2-methyl-1-(4-(1-methyl-2-(4-(methylsulfonyl)phenyl)-4-(trifluoromethyl)-1H-imidazo[4,5-c]pyridin-6-yl)-[1,4′-bipiperidin]-1′-yl)propan-2-ol]: the pIC50 in assay [1] was 6.89; in assay [2] it was under 4.30; in assay [3], 5.46.

As for `CC(C)CN1CC2(C1)CN(c1ccc(-c3cc4c(cn3)nc(-c3ccc(S(C)(=O)=O)cc3)n4C3CC3)cc1)C2` [Example 90, 1-cyclopropyl-6-(4-(6-isobutyl-2,6-diazaspiro[3.3]heptan-2-yl)phenyl)-2-(4-(methylsulfonyl)phenyl)-1H-imidazo[4,5-c]pyridine], the pIC50 is 6.36 in assay [1], 5.54 in assay [2] and 5.24 in assay [3].
